The values that follow come from ChEMBL document CHEMBL1201862, “PubChem BioAssay data set” (2004).

Test systems include DMS-114; OVCAR-5; SF-295; UACC-62; HOP-62; UACC-257; U-251; OVCAR-3; TK-10; HCT-116; SK-OV-3; HCT-15; SN12C; T47D; NCI-H460; NCI-H226; SW-620; OVCAR-4; MDA-MB-435; A498.
What all share (assay): NCI tumour cell line growth inhibition, 48 h

Where “and” joins values, the source holds several entries; their conditions need not be identical. Equal entries are not always repeated.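 A five-concentration, 48-hour dose response in 96-well plates underlies each endpoint, interpolated linearly between surrounding concentrations. At the GI50, growth is halved.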 Calls of active or inactive are those of the source. Rule as the data show it: active = GI50 up to about 1.1 µM and inactive = higher. Some results are limits rather than exact numbers.

For `CC(=O)[C@]1(O)Cc2c(O)c3c(c(O)c2[C@@H](OC2CC(N)C(O)C(C)O2)C1)C(=O)c1c(OCc2ccccc2)cccc1C3=O` (stereo not given in full), the GI50 in the test on DMS-114 is 1.36 µM (inactive); with OVCAR-5, 2.07 µM (inactive); in the test on SF-295 it was 1.23 µM (inactive); with UACC-62, 1.73 µM (inactive); in the test with HOP-62 it was 1.84 µM (inactive); in the test on UACC-257, 4.06 µM (inactive). Moreover, the GI50 with U-251 was 1.07 µM (active); with OVCAR-3 it was 2.06 µM (inactive); in the test on TK-10, 9.75 µM (inactive); in the test with HCT-116, 0.605 µM (active); with SK-OV-3, 4.06 µM (inactive); in the test with HCT-15, 1.39 µM. The GI50 is 1.37 µM (inactive) with SN12C; 2.32 µM (inactive) in the test with T47D; 0.14 µM (active) in the test on NCI-H460; 1.09 µM (active) in the test on NCI-H226; 0.544 µM (active) in the test on SW-620; 2.43 µM (inactive) in the test on OVCAR-4. Besides, the GI50 with MDA-MB-435 was 1.43 µM (inactive); with A498, 5.61 µM (inactive).
Turning to `Cc1cc(N(CCC#N)CCC#N)ccc1/N=N/c1ccc([N+](=O)[O-])cc1`, the GI50 was 19 µM (inactive) with DMS-114; > 100 µM (inactive) with OVCAR-5; 56.4 µM (inactive) with SF-295; > 10 µM (inactive) in the test on UACC-62; > 100 µM (inactive) in the test on HOP-62; > 100 µM (inactive) in the test on UACC-257. Also, the GI50 was 18.6 µM (inactive) in the test with U-251; 47.2 µM (inactive) in the test on OVCAR-3; 39.8 µM (inactive) in the test on TK-10; 17.7 µM (inactive) in the test with HCT-116; > 10 µM (inactive) in the test on SK-OV-3; 39.4 µM in the test on HCT-15. Moreover, the GI50 in the test on SN12C was 65.8 µM (inactive); in the test on NCI-H460 it was 39.4 µM (inactive); with NCI-H226 it was > 100 µM (inactive); in the test on SW-620, > 10 µM (inactive); in the test on OVCAR-4 it was 19.7 µM (inactive); with A498, > 100 µM (inactive).
On to `Nc1nc(N)c2ncn(CCOC(c3ccccc3)P(=O)(O)O)c2n1` (stereo not given), for which the GI50 in the test on DMS-114, in the test with OVCAR-5, in the test on SF-295, in the test with UACC-62, in the test on UACC-257 and in the test with U-251 was > 100 µM (inactive) each time. In addition, the GI50 was > 100 µM (inactive) with OVCAR-3; > 100 µM (inactive) with TK-10; > 100 µM (inactive) in the test with HCT-116; > 100 µM (inactive) in the test with SK-OV-3; greater than 100 µM with HCT-15; > 100 µM (inactive) in the test on SN12C. Also, the GI50 with NCI-H460, with NCI-H226, with SW-620 and in the test with A498 was > 100 µM (inactive) in each case.
With `O=[N+]([O-])c1ccc2nc3ccscc-3c2c1`, the GI50 was 16.9 µM (inactive) with DMS-114; 35.3 µM (inactive) in the test with OVCAR-5; 24.2 µM (inactive) in the test on SF-295; 21.4 µM (inactive) in the test on UACC-62; 17.9 µM (inactive) in the test on HOP-62; 14.3 µM (inactive) with UACC-257. Besides, the GI50 in the test on U-251 is 7.76 µM (inactive); in the test on OVCAR-3, 7.94 µM (inactive); in the test with TK-10 it was 20.9 µM (inactive); in the test with SK-OV-3, 30.7 µM (inactive); in the test with HCT-15 it was 15.2 µM; in the test with NCI-H460, 14.1 µM (inactive). In addition, the GI50 with NCI-H226 was 20.9 µM (inactive); in the test with SW-620, 7.08 µM (inactive); in the test with OVCAR-4, 15.5 µM (inactive); in the test on A498, 8.36 µM (inactive).
Turning to `CC(=O)NC(CCCN(Cc1ccccc1)C(=O)N(CCCl)N=O)C(=O)NCc1ccccc1` (stereo not given), the GI50 is > 100 µM (inactive) with DMS-114; 35.2 µM (inactive) in the test with OVCAR-5; 6.19 µM (inactive) in the test on SF-295; 2.24 µM (inactive) in the test on UACC-62; 7.24 µM (inactive) with HOP-62; 50 µM (inactive) in the test on UACC-257. In addition, the GI50 is 10.9 µM (inactive) in the test with U-251; 98.6 µM (inactive) with OVCAR-3; > 85.5 µM (inactive) with TK-10; 37.8 µM (inactive) with HCT-116; 55.6 µM (inactive) in the test with SK-OV-3; greater than 81.8 µM with HCT-15. The GI50 is 46.3 µM (inactive) in the test on SN12C; 3.32 µM (inactive) in the test on NCI-H460; 44.9 µM (inactive) in the test on NCI-H226; 16.2 µM (inactive) in the test on SW-620; > 95.3 µM (inactive) in the test on OVCAR-4; 32.7 µM (inactive) with A498.
With `O=[N+]([O-])c1ccc2c(Nc3ccccc3-c3ccccc3Nc3c4ccccc4nc4cc([N+](=O)[O-])ccc34)c3ccccc3nc2c1`, the GI50 in the test with DMS-114 was 11.1 µM (inactive); with OVCAR-5, 25.9 µM (inactive); with SF-295 it was 5.4 µM (inactive); in the test with UACC-62, 3.16 µM (inactive); with HOP-62 it was 9.33 µM (inactive); in the test with UACC-257, 8.05 µM (inactive). Moreover, the GI50 in the test with U-251 is 2.94 µM (inactive); with OVCAR-3, 3.18 µM (inactive); in the test with TK-10, 4.46 µM (inactive); with HCT-116 it was 1.65 µM (inactive); with SK-OV-3, 13.2 µM (inactive); with HCT-15 it was 3.77 µM. The GI50 was 2.54 µM (inactive) with SN12C; 7.24 µM (inactive) in the test on T47D; 2.5 µM (inactive) with NCI-H460; 4.11 µM (inactive) with NCI-H226; 1.69 µM (inactive) with SW-620; 10 µM (inactive) with OVCAR-4. Further, the GI50 is 1.34 µM (inactive) in the test with MDA-MB-435 and 9.35 µM (inactive) in the test with A498.
For `CN(C)CCn1cnc2sc3ccccc3c21`, the GI50 in the test on DMS-114, in the test with OVCAR-5, in the test on SF-295, in the test with UACC-62, with HOP-62 and in the test on UACC-257 was > 100 µM (inactive) in each case. The GI50 in the test on U-251 is > 100 µM (inactive); in the test on OVCAR-3, > 100 µM (inactive); in the test with TK-10 it was > 100 µM (inactive); in the test with HCT-116, > 100 µM (inactive); with SK-OV-3, > 100 µM (inactive); with HCT-15, greater than 100 µM. Besides, the GI50 in the test with SN12C is > 100 µM (inactive); in the test with NCI-H460, > 100 µM (inactive); in the test on NCI-H226, 40.4 µM (inactive); in the test on SW-620, > 100 µM (inactive); in the test with OVCAR-4, > 100 µM (inactive); with A498, > 100 µM (inactive).
For the molecule `O=C1/C(=C/c2cccc([N+](=O)[O-])c2)COc2ccccc21`, the GI50 in the test on DMS-114 was 2.84 µM (inactive); in the test with OVCAR-5 it was > 35 µM (inactive); with SF-295 it was 11.2 µM (inactive); in the test on UACC-62 it was 1.67 µM (inactive); in the test on HOP-62 it was 11 µM (inactive); in the test with UACC-257, 7.69 µM (inactive). Besides, the GI50 was 2.62 µM (inactive) in the test with U-251; 2.79 µM (inactive) in the test on OVCAR-3; 23 µM (inactive) with TK-10; 1.76 µM (inactive) in the test with HCT-116; 30.2 µM (inactive) with SK-OV-3; 1.55 µM in the test on HCT-15. Besides, the GI50 was 15.6 µM (inactive) with NCI-H460; 3.86 µM (inactive) with NCI-H226; 1.11 µM (active) in the test with SW-620; 2.49 µM (inactive) in the test on OVCAR-4; 40.8 µM (inactive) in the test on A498.
`O=C1N2Cc3c4ccc5c3CN3C(=O)N6Cc7c(ccc(c7CN1C6(c1ccccc1)C23c1ccccc1)OCCOCCNCCOCCO4)OCCOCCNCCOCCO5` (stereo not given): the GI50 in the test on DMS-114 was > 100 µM (inactive); in the test with OVCAR-5, > 100 µM (inactive); in the test on SF-295, 65.5 µM (inactive); in the test with UACC-62, 42.4 µM (inactive); in the test with HOP-62 it was > 100 µM (inactive); in the test on UACC-257, 16.9 µM (inactive). Further, the GI50 in the test with U-251 was 28.9 µM (inactive); with OVCAR-3, 15 µM (inactive); with TK-10, 26.9 µM (inactive); in the test with HCT-116 it was 30.8 µM (inactive); in the test on SK-OV-3 it was 85.9 µM (inactive); in the test with HCT-15, 28.3 µM. For the same molecule, the GI50 was 19.5 µM (inactive) in the test on SN12C; 30.5 µM (inactive) with NCI-H460; > 100 µM (inactive) with NCI-H226; 18 µM (inactive) with SW-620; > 100 µM (inactive) in the test with OVCAR-4; > 100 µM (inactive) in the test on A498.
Take `CC1CCC2(C(=O)O)CCC3(C)C(=CCC4C5(C)CCC(O)C(C)(C)C5CCC43C)C2C1C` (stereo not given): the GI50 in the test with DMS-114 was 9.42 µM (inactive); in the test on OVCAR-5 it was 11.1 µM (inactive) and 10.6 µM (inactive); in the test on SF-295, 3.3 µM (inactive) and 3.22 µM (inactive); with UACC-62, 19.6 µM (inactive) and 10.8 µM (inactive); in the test on HOP-62, 16.5 µM (inactive) and 9.33 µM (inactive); in the test with U-251, 9.68 µM (inactive) and 17.8 µM (inactive). Also, the GI50 in the test on OVCAR-3 is 7.52 µM (inactive) and 13.8 µM (inactive); with TK-10, 19.7 µM (inactive); with HCT-116, 14.4 µM (inactive) and 7.28 µM (inactive); in the test on SK-OV-3, 18.2 µM (inactive) and 15.5 µM (inactive); in the test with SN12C, 10.3 µM (inactive) and 18 µM (inactive); in the test with T47D, 14.2 µM (inactive). Moreover, the GI50 in the test on NCI-H460 is 12.4 µM (inactive); in the test with NCI-H226, 19.7 µM (inactive) and 11.1 µM (inactive); in the test with OVCAR-4, 17.3 µM (inactive) and 13.3 µM (inactive); with MDA-MB-435, 30.1 µM (inactive).
As to `CCN(C(=N)C#N)c1ccccc1`, the GI50 is > 54.8 µM (inactive) in the test with DMS-114; > 100 µM (inactive) with OVCAR-5; > 100 µM (inactive) in the test on SF-295; > 72.3 µM (inactive) in the test with UACC-62; > 100 µM (inactive) in the test on HOP-62; > 59.2 µM (inactive) with UACC-257. The GI50 in the test with U-251 was 65.9 µM (inactive); in the test on OVCAR-3, > 100 µM (inactive); with TK-10, > 100 µM (inactive); in the test with HCT-116 it was > 60.4 µM (inactive); in the test with SK-OV-3, > 100 µM (inactive); with HCT-15 it was greater than 45.4 µM. Moreover, the GI50 with SN12C was > 100 µM (inactive); in the test on NCI-H460, > 63.8 µM (inactive); in the test with NCI-H226 it was > 100 µM (inactive); in the test with SW-620, 20.5 µM (inactive); in the test on OVCAR-4, > 100 µM (inactive); with A498, > 100 µM (inactive).
